For assay [1], the system named is 24-hydroxylase (24 Ohase) gene promoter in ROS 17/2.8 (bone) cells. Description: In vitro transcription assay (24-hydroxylase promoter luciferase reporter). Type of assay: cell-based. Particulars: for EC50: ROS 17/2.8 cells, 24-hydroxylase promoter luciferase, 16 h, FIG. 3, read-out: EC50, transcriptional activity in bone cells. As to the method:
In Vitro Transcription Assay Transcription activity was measured in ROS 17/2.8 (bone) cells that were stably transfected with a 24-hydroxylase (24 Ohase) gene promoter upstream of a luciferase reporter gene (Arbour et al., 1998). Cells were given a range of doses. Sixteen hours after dosing the cells were harvested and luciferase activities were measured using a luminometer. RLU=relative luciferase units.

Assay [2] relates to vitamin D-deficient rats. The assay can be described thus: Bone calcium mobilization (serum calcium). Type of assay: in vivo, Sprague-Dawley rats. From the text: Intestinal Calcium Transport and Bone Calcium Mobilization
Male, weanling Sprague-Dawley rats were placed on Diet 11 (Suda et al, J. Nutr. 100:1049, 1970) (0.47% Ca)+vitamins AEK for one week followed by Diet 11 (0.02% Ca)+vitamins AEK for 3 weeks. The rats were then switched to the same diet containing 0.47% Ca for one week followed by two weeks on the same diet containing 0.02% Ca. Dose administration began during the last week on 0.02% calcium diet. Four consecutive ip doses were given approximately 24 hours apart. Twenty-four hours after the last dose, blood was collected from the severed neck and the concentration of serum calcium determined by atomic absorption spectrometry as a measure of bone calcium mobilization. The first 10 cm of the intestine was also collected for intestinal calcium transport analysis using the everted gut sac method.

Assay [3] concerns Human promyelocytic leukemia (HL60) cells. The assay can be described thus: HL-60 differentiation (nitro blue tetrazolium reduction). Format: cell-based. Particulars: four days, FIG. 2. As to the method:
The study drugs were dissolved in ethanol and the concentrations determined using UV spectrophotometry. Serial dilutions were prepared so that a range of drug concentrations could be tested without changing the final concentration of ethanol (≦0.2%) present in the cell cultures.
Human promyelocytic leukemia (HL60) cells were grown in RPMI-1640 medium containing 10% fetal bovine serum. The cells were incubated at 37° C. in the presence of 5% CO2.
HL60 cells were plated at 1.2×10^5 cells/ml. Eighteen hours after plating, cells in duplicate were treated with drug. Four days later, the cells were harvested and a nitro blue tetrazolium reduction assay was performed (Collins et al., 1979; J. Exp. Med. 149:969-974). The percentage of differentiated cells was determined by counting a total of 200 cells and recording the number that contained intracellular black-blue formazan deposits. Verification of differentiation to monocytic cells was determined by measuring phagocytic activity (data not shown).

Assay [4] relates to vitamin D-deficient rats. Description: Intestinal calcium transport (everted gut sac method). Type of assay: in vivo, Sprague-Dawley rats. As to conditions: low calcium diet, 4 ip doses, relative to 1,25(OH)2D3, FIG. 5. The text has this:
Dose administration began during the last week on 0.02% calcium diet. […] The first 10 cm of the intestine was also collected for intestinal calcium transport analysis using the everted gut sac method.

In assay [5] the target is T1, full-length recombinant rat vitamin D receptor (Rattus norvegicus, UniProt P13053).
T1 sequence (P13053 1-423): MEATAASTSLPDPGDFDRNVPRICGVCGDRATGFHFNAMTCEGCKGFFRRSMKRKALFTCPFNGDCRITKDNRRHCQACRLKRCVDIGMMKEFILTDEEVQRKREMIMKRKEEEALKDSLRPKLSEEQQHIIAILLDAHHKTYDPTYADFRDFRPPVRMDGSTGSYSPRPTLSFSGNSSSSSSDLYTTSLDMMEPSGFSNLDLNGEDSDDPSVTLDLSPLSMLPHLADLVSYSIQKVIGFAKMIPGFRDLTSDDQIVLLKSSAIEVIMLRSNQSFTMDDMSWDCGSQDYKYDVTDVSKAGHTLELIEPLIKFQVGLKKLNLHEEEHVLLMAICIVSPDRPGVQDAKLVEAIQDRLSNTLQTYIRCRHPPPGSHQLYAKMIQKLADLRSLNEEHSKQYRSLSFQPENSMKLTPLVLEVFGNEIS
The assay can be described thus: biochemical.

We go through 2 compounds from patent publication US8987235B2, “N-cyclopropyl-(20R)-2-methylene-19,26,27-trinor-25-aza-vitamin D analogs and their uses” (Wisconsin Alumni Research Foundation, priority 2011, dated 2015).

“Also recorded” adds a separate entry of the source.

As to `C=C1/C(=C\C=C2/CCC[C@]3(C)[C@@H]([C@H](C)CCCC(C)(C)O)CC[C@@H]23)C[C@@H](O)C[C@@H]1O` [1α,25-dihydroxyvitamin D3, reference compound], the EC50 in assay [1] amounted to 0.2 nM; in assay [3], 2 nM. Besides, the “serum calcium levels (in words)” value in the assay on vitamin D-deficient rats [2] (87 pmol and 780 pmol dosages, rats on 0.02% Ca diet, listed as 1,25(OH)2D3) is “increased serum calcium levels; also recorded: significant increases in serum calcium”.
On to `C=C1[C@H](O)CC(=C/C=C2\CCC[C@]3(C)[C@@H]([C@H](C)CCCNC4CC4)CC[C@@H]23)C[C@H]1O` [CPA-1, N-cyclopropyl-(20R)-2-methylene-19,26,27-trinor-25-aza-1α-hydroxyvitamin D3], for which the EC50 in assay [1] turned out to be 3 nM; in assay [3] (Homo sapiens, HL-60, 96 h), 3 nM. Besides, in assay [1] (bone cells, relative to 1,25(OH)2D3), the “times less potent than 1,25(OH)2D3 in increasing transcription of the 24-hydroxylase gene” value was “about 10 times”. Further, in the assay with vitamin D-deficient rats [2] (rats, low calcium diet, 4 ip doses, relative to 1,25(OH)2D3, FIG. 4), the “times less potent than 1,25(OH)2D3 in releasing bone calcium stores” value is recorded as “about 400 times”. Further, the “times less potent than 1,25(OH)2D3 in promoting intestinal calcium transport” value with vitamin D-deficient rats [4] is on record as “about 20 times”. Further, the Ki in assay [5] turned out to be 3 nM.

Usually EC50 stands for the concentration giving half of the maximal effect. For orientation: Ki means the equilibrium dissociation constant of an inhibitor or competing ligand from its target.
